In data set [1] the target is T1, human recombinant BHMT (Homo sapiens, UniProt Q93088).
T1 sequence (Q93088 1-406): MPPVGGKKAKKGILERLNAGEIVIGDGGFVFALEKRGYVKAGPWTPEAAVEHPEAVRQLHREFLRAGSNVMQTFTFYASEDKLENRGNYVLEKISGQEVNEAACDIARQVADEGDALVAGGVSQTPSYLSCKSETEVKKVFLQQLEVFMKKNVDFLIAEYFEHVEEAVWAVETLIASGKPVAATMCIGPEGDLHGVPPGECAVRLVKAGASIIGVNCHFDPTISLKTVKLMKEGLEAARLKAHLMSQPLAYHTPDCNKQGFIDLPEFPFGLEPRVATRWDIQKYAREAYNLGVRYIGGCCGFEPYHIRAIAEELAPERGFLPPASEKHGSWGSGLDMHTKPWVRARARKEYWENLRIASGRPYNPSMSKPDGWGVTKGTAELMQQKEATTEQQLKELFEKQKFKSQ
Briefly: BHMT inhibition assay. Format: biochemical. As to conditions: for inhibition of BHMT, in words: qualitative statement; for % Inhibition (average of triplicates): 20 μM inhibitor, 0.25 mM betaine, 0.1 mM DL-homocysteine, pH 7.5, 37 °C.

A short description of data set [2]: 1H and 13C NMR pH titration. Format: physicochemical. As to conditions: NMR titration over broad pH range.
Data set [3] deals with T1, human recombinant BHMT. Briefly: Isothermal titration calorimetry of inhibitor binding to BHMT. As to conditions: ITC. (In general: In ITC the heat of successive injections is recorded.)
Where [4] appears, read: pH 7.5, read-out: % Inhibition (average of triplicates).

Structures are written as SMILES. Entries after “also recorded” stand apart in the source; their conditions may differ.

This note sets out measurements from publication PMC2744866 (Journal of medicinal chemistry, 2009).

Take `NC(CCSSCCCC(=O)O)C(=O)O` (racemic) [Compound 5, (RS)-2-Amino-4-[(3-carboxypropyl)disulfanyl]butanoic acid]: the “inhibition of BHMT, in words” value at human recombinant BHMT [1] is listed as “very weak inhibitor”.

`NC(CCSCSCCC(=O)O)C(=O)O` (racemic) [Compound 6, (RS)-2-Amino-4-[(2-carboxyethylthio)methylthio]butanoic Acid]: the “inhibition of BHMT, in words” value on human recombinant BHMT [1] is on record as “moderate inhibitory potency”.

On to `NC(CCCSCCCC(=O)O)C(=O)O` (racemic) [Compound 7, (RS)-2-Amino-5-(3-carboxypropylthio)pentanoic Acid], for which the “inhibition of BHMT, in words” value at human recombinant BHMT [1] is reported as “low inhibitory potency”.

Regarding `NC(CCOCCCCC(=O)O)C(=O)O` (racemic) [Compound 8, (RS)-5-(3-Amino-3-carboxypropoxy)pentanoic Acid], at human recombinant BHMT [1], the “inhibition of BHMT, in words” value is “almost inactive”.

`NC(CC[Se]CCCCC(=O)O)C(=O)O` (racemic) [Compound 9, (RS)-5-(3-Amino-3-carboxypropylselanyl)pentanoic Acid]: the “fold weaker than compound 1” value on human recombinant BHMT [1] (compared with reference inhibitor 1) came out at 5 fold. The “inhibition of BHMT, in words” value at human recombinant BHMT [1] was “strongly inhibited”.

Turning to `NC(CCCCCCCC(=O)O)C(=O)O` (racemic) [Compound 10, (RS)-2-Aminodecanedioic Acid], at human recombinant BHMT [1], the “inhibition of BHMT, in words” value is “almost inactive”.

Consider `C[N+](C)(CSCCC(N)C(=O)O)CC(=O)[O-]` (racemic) [Compound 11, (RS)-2-{[(3-Amino-3-carboxypropylthio)methyl]dimethylammonium}acetate], for which, at human recombinant BHMT [1], the “% Inhibition (average of triplicates)” value was “completely inactive”.

On to `C[N+](C)(CCSCCC(N)C(=O)O)CC(=O)[O-]` (racemic) [Compound 12, (RS)-2-{[2-(3-Amino-3-carboxypropylthio)ethyl]dimethylammonium}acetate], for which, on human recombinant BHMT [1], the “% Inhibition (average of triplicates)” value is given as “very weak inhibition”.

For `CN(CCSCCC(N)C(=O)O)CC(=O)O` (racemic) [Compound 13, (RS)-2-Amino-4-{2-[(carboxymethyl)(methyl)amino]ethylthio}-butanoic Acid], the “inhibition of BHMT, in words” value on human recombinant BHMT [1] is listed as “promising, but still moderate, inhibition”. Further, in data set [2], the “pK2 of secondary/tertiary amino group” value is ~9.5.

Regarding `NC(CCSCCNCC(=O)O)C(=O)O` (racemic) [Compound 16, (RS)-2-Amino-4-[2-(carboxymethylamino)ethylthio]butanoic Acid], the “pK2 of secondary/tertiary amino group” value in data set [2] was ~9.5.

In the case of `C[N+](C)(CCCSCCC(N)C(=O)O)CC(=O)[O-]` (racemic) [Compound 18, (RS)-2-{[3-(3-Amino-3-carboxypropylthio)propyl]dimethylammonio}acetate], the “inhibition of BHMT, in words” value on human recombinant BHMT [1] is given as “did not inhibit BHMT at all”.

For the compound `CN(CCCSCCC(N)C(=O)O)CC(=O)O` (racemic) [Compound 19, (RS)-2-Amino-4-{3-[(carboxymethyl)(methyl)amino]propylthio}butanoic Acid], the “inhibition of BHMT, in words” value on human recombinant BHMT [1] is “only a modest inhibitor”.

On to `C[C@@H](CCSCC[C@@H](N)C(=O)O)CC(=O)O` (racemic) [Compound 20], for which the “inhibition of BHMT, in words” value on human recombinant BHMT [1] is “highly potent inhibitors; also recorded: equipotent”.

With `CC(C)(CCSCCC(N)C(=O)O)CC(=O)O` (racemic) [Compound 21], on human recombinant BHMT [1], the “inhibition of BHMT, in words” value is on record as “highly potent inhibitors”. For the same compound, at human recombinant BHMT [3] (25 °C, pH 7.5), the “enthalpic contribution ΔH” value is -29.5 ± 1.2 kcal/mol and the “entropic contribution −TΔS” value was found to be 19.6 ± 1.3 kcal/mol. Further, the “association constant Ka” value on human recombinant BHMT [3] (25 °C, pH 7.5, S-enantiomer) is reported as “(2.0 ± 0.6) × 10^7 M^−1”. Besides, the “stoichiometry of the main interaction” value at human recombinant BHMT [3] (inhibitor per BHMT monomer) is listed as 1.1 ± 0.1.

For the compound `NC(CCSCCCCC(=O)O)C(=O)O` (stereo not shown) [Compound 1, reference compound], at human recombinant BHMT [1] (setting [4]), the inhibition – broadly, the relative decrease from the control value, in per cent – at 1 µM is 97.6% and the inhibition at 20 µM is 100%.
